Reference: patent publication US12083230B2, “Nano-encapsulation using GRAS materials and applications thereof” (priority 2015, dated 2024)

Legend:
[1] = cited from earlier work; for Log D: pH 7.4
[2] = system: V. cholerae WN1102; test: Bioluminescence response of V. cholerae WN1102 (in vitro bioactivity assay); type: cell-based; conditions: suggested by bioactivity of the flow through
Excerpt: FIG. 10(a) illustrates bioluminescence response of V. cholerae WN1102 supplemented with varying amounts of CAI-1-loaded Zein/CAS/VitE-Ac composite nanoparticles in PBS according to some embodiments described herein.
The bioactivity of blank Zein/CAS/VitEA particles was not detectable (FIG. 10b). […] The flow-through after centrifugal filtration can be regarded as a correlate for encapsulation efficiency of CAI-1. Bioactivity of the flow through was observed only at very high concentrations, approximately 1,000-10,000-fold higher than CAI-1 NPs.

[3] = system: V. cholera cultures; test: Growth of V. cholera cultures at 37° C.; type: cell-based; conditions: during the time tested
Experimental: FIG. 10(b) illustrates growth of V. cholera cultures at 37° C. in response to addition of CAI-1-loaded Zein/CAS/VitE-Ac nanoparticles according to some embodiments described herein.
Changes in size and PDI could only be observed for the three-fold protein per amount of drug formulation (FIG. 9a). […] All parts of the formulation were necessary for the formation of nanoparticles with defined size. […] FNP of CAI-1 alone yielded a polydisperse emulsion, which then agglomerated and settled out over time.

[4] = Nanoparticle solution stability (milliQ H2O, PBS pH7.4, LB50, 2% bile salts, pH2.0) by DLS; type: physicochemical; conditions: 10% wt. Nile Red loading
Experimental: Using a Zetasizer® Nano-ZS (Malvern instruments, Malvern, UK), dynamic light scattering (DLS) size measurements were performed on samples directly after FNP. Samples were diluted with ultra-pure water to avoid multiple scattering and analyzed at 25° C. using a detection angle of 173°. The reported size is the intensity-weighted average diameter as reported by the Malvern deconvolution software in Normal Mode analysis.
Initially, nanoparticle formulations were screened for stability at physiologic conditions (PBS) and conditions relevant to the in vitro model of V. cholera.
Various zein-to-casein ratios were produced to further investigate formulation stability in physiological environments relevant to oral delivery. Zein to casein ratios 4:1, 2:1, and 1:1 FIG. 17 in PBS, pH2.0, LB50 and 2% bile salts were investigated.

[5] = Nile Red encapsulation efficiency by UV-Vis of flow through after centrifugal filtration; type: physicochemical; conditions: in Zn/CAS-VitE-Ac NPs, all stable formulations (0.2%-5 wt.%)
Excerpt: The utility of an encapsulation method depends on its encapsulation capacity and efficiency for various compounds. […] Nile Red was encapsulated at 0.2%-5 wt. %. At 0.1% wt. […] Encapsulation efficiency of Nile Red in Zn/CAS-VitE-Ac NPs was >98% for all stable formulations as determined by UV-Vis measurement of the flow through after centrifugal filtration (FIG. 7). With increasing Nile Red concentration in the core, the mean nanoparticle diameter increases (FIG. 6b). The florescence intensity is expected to increase with higher dye loading per particle. This can be seen in FIGS. 6(c) and 6(d) for two different wavelengths (500 nm excitation, 690 nm emission) and core loadings of 0.2-1% wt.

| Compound | Log D [1] | log P [1] | further results |
| --- | --- | --- | --- |
| NC(=O)CC[C@@H]1NC(=O)[C@H](Cc2ccccc2)NC(=O)[C@H](Cc2ccc(O)cc2)NC(=O)CCSSC[C@@H](C(=O)N2CCC[C@H]2C(=O)N[C@H](CCCN=C(N)N)C(=O)NCC(N)=O)NC(=O)[C@H](CC(N)=O)NC1=O [Desmopressin] | -7.34 | – | – |
| c1cc2ccc3cccc4ccc(c1)c2c34 [Pyrene] | 4.92 | 5.17 | – |
| CCCCCCCCCC(=O)[C@@H](O)CC [CAI-1] | 4.30 | – | Encapsulation efficiency of CAI-1 during FNP [2]: > 98%; Effect on the growth of cells [3]: no apparent effect |
| Nc1ccc(O)c(C(=O)O)c1 [Mesalazine] | -1.98 | 0.46 | – |
| CN(C)c1ccc(/N=N/c2ccccc2C(=O)O)cc1 [Methyl Red] | 1.46 | – | – |
| CCN(CC)c1ccc2nc3c4ccccc4c(=O)cc-3oc2c1 [Nile Red] | 4.46 | – | NP behaviour after FNP at high dye loading [4]: immediate aggregation of NPs; Encapsulation efficiency of Nile Red [5]: > 98% |
